23 compounds from ChEMBL document CHEMBL4184289, “Design, synthesis and anticancer activities evaluation of novel 5H-dibenzo[b,e]azepine-6,11-dione derivatives containing 1,3,4-oxadiazole units” (Bioorg Med Chem Lett, 2018) can be followed below.

The target of test [1] is Poly [ADP-ribose] polymerase 1 (Homo sapiens, UniProt P09874). Nature of the test: Inhibition of recombinant human GST-tagged PARP1 expressed in Escherichia coli using damaged DNA as substrate after 30 mins in presence of NAD+ by resazurin dye based fluorescence assay. (In general: The colour change of resazurin is a common sign of viable cells or microbes.)
Test [2] concerns OVCAR-3. Nature of the test: Antiproliferative activity against human OVCAR3 cells after 24 hrs by MTT assay. Type of test: functional, cell-based. (In general: Formazan colour is commonly taken as a measure of viable cells.)
Test [3] relates to OVCAR-3. Nature of the test: Induction of apoptosis in human OVCAR3 cells assessed as downregulation of Bcl2 protein expression at 0.625 to 10 uM after 24 hrs by Western blot method. The format is functional, cell-based.
The mark [4] stands for this setting: Homo sapiens, OVCAR-3, 24 h, read-out: IC50.

The term IC50 denotes the point on the concentration scale where inhibition reaches its midpoint.

Calls of active or inactive are those of the source. The rule behind the calls is not given here.

Poly [ADP-ribose] polymerase 1, sequence (P09874 whole entry): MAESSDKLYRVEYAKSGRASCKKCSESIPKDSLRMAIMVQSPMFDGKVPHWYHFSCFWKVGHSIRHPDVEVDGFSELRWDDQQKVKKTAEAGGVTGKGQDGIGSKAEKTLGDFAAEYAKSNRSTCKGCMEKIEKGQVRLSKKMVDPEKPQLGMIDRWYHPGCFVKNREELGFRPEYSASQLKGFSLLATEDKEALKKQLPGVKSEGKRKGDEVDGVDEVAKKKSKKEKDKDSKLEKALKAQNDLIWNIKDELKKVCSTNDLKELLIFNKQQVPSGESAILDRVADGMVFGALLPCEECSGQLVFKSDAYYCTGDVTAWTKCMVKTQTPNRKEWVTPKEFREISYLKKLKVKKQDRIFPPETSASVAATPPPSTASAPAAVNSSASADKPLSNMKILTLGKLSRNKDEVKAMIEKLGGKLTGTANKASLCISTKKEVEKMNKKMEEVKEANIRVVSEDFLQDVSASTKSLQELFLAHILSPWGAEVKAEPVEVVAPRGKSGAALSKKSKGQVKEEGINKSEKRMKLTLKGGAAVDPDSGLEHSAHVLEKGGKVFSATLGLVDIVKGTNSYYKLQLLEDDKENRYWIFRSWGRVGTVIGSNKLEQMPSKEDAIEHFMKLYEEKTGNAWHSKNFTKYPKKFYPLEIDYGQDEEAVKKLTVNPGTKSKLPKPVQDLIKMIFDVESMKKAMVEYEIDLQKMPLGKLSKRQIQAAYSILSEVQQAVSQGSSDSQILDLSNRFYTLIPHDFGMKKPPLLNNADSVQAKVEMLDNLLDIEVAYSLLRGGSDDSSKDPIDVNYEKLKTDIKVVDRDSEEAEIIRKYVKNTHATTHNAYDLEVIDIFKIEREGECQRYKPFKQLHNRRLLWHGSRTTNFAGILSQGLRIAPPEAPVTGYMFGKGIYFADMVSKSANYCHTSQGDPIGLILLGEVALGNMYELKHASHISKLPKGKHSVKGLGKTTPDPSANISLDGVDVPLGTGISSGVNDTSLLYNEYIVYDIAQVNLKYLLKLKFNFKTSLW

For `COc1c(Br)cc(Br)cc1/C=C/c1nnc(-c2cc(C)cc3c(=O)c4ccccc4c(=O)[nH]c23)o1`, the values for the IC50 in test [1] (read-out: IC50) and in test [2] (ovcar-3) were 939 nM and “Not Active”, respectively.

Turning to `CNCc1ccc(-c2[nH]c3cc(F)cc4c3c2CCNC4=O)cc1` [RUCAPARIB], the IC50 in test [2] (setting [4]) was found to be 3310 nM.

For `Cc1cc(-c2nnc(COc3ccccc3)o2)c2[nH]c(=O)c3ccccc3c(=O)c2c1`, the IC50 entry in test [1] and in test [2] (ovcar-3) was “Not Active” each time.

`O=C(NCc1nnc(-c2cccc3c(=O)c4ccccc4c(=O)[nH]c23)o1)c1ccccc1Cl`: the IC50 in test [1] (read-out: IC50) was 745 nM; in test [2] (setting [4]), more than 100000 nM.

Regarding `COc1ccc(Cl)cc1/C=C/c1nnc(-c2cc(C)cc3c(=O)c4ccccc4c(=O)[nH]c23)o1`, the IC50 was 1190 nM in test [1] (read-out: IC50) and more than 100000 nM in test [2] (setting [4]).

Consider `Cc1cc(-c2nnc(CNC(=O)c3ccccc3Cl)o2)c2[nH]c(=O)c3ccccc3c(=O)c2c1`, for which the IC50 result in test [1] and in test [2] (ovcar-3) was “Not Active” throughout.

For the compound `COc1ccc(Br)cc1/C=C/c1nnc(-c2cc(C)cc3c(=O)c4ccccc4c(=O)[nH]c23)o1`, the IC50 result in test [1] and in test [2] (ovcar-3) was “Not Active” throughout.

For the compound `Cc1cc(-c2nnc(CNC(=O)c3ccccc3)o2)c2[nH]c(=O)c3ccccc3c(=O)c2c1`, the IC50 in test [1] (read-out: IC50) is 304 nM; in test [2] (setting [4]) it was 11400 nM.

In the case of `O=c1[nH]c2c(-c3nnc(-c4ccccc4Cl)o3)cccc2c(=O)c2ccccc12`, the 50% inhibitory concentration (IC50) was 1100 nM in test [1] (read-out: IC50) and more than 100000 nM in test [2] (setting [4]).

In the case of `Cc1cc(-c2nnc(/C=C/c3ccccc3)o2)c2[nH]c(=O)c3ccccc3c(=O)c2c1`, the IC50 was 446 nM in test [1] (read-out: IC50) and 17700 nM in test [2] (setting [4]).

Consider `COc1c(Br)cc(Br)cc1/C=C/c1nnc(-c2cccc3c(=O)c4ccccc4c(=O)[nH]c23)o1`, for which the IC50 in test [1] (read-out: IC50) was 25 nM; in test [2] (setting [4]) it was 1400 nM. Further, in test [3], the result was Active.

In the case of `O=c1[nH]c2c(-c3nnc(COc4ccccc4)o3)cccc2c(=O)c2ccccc12`, the IC50 in test [1] (read-out: IC50) amounted to 99 nM; in test [2] (setting [4]), 6280 nM.

Consider `O=c1[nH]c2c(-c3nnc(/C=C/c4ccccc4)o3)cccc2c(=O)c2ccccc12`, for which the figures for the IC50 in test [1] (read-out: IC50) and in test [2] (setting [4]) were 400 nM and 12100 nM, respectively.

For `Cc1cc(-c2nnc(-c3ccccc3Cl)o2)c2[nH]c(=O)c3ccccc3c(=O)c2c1`, the IC50 in test [1] (read-out: IC50) came to 51 nM; in test [2] (setting [4]), 4190 nM.

Regarding `O=c1[nH]c2c(-c3nnc(-c4ccccc4)o3)cccc2c(=O)c2ccccc12`, the IC50 result is “Not Active” in test [1] and more than 100000 nM in test [2] (setting [4]).

For the compound `O=C(NCc1nnc(-c2cccc3c(=O)c4ccccc4c(=O)[nH]c23)o1)c1ccccc1`, the IC50 in test [1] (read-out: IC50) was 1260 nM; in test [2] (setting [4]) it was more than 100000 nM.

As to `COc1ccc(Br)cc1/C=C/c1nnc(-c2cccc3c(=O)c4ccccc4c(=O)[nH]c23)o1`, the IC50 turned out to be 47 nM in test [1] (read-out: IC50) and 1660 nM in test [2] (setting [4]). The outcome in test [3] was Active.

As to `Cc1cc(-c2nnc(-c3ccccc3)o2)c2[nH]c(=O)c3ccccc3c(=O)c2c1`, the figures for the IC50 in test [1] (read-out: IC50) and in test [2] (setting [4]) were 277 nM and 10100 nM, respectively.

For the compound `COc1ccc(F)cc1/C=C/c1nnc(-c2cccc3c(=O)c4ccccc4c(=O)[nH]c23)o1`, the IC50 is 951 nM in test [1] (read-out: IC50) and more than 100000 nM in test [2] (setting [4]).

For `COc1ccccc1/C=C/c1nnc(-c2cc(C)cc3c(=O)c4ccccc4c(=O)[nH]c23)o1`, the IC50 in test [1] (read-out: IC50) stood at 147 nM; in test [2] (setting [4]), 10700 nM.

For `COc1ccccc1/C=C/c1nnc(-c2cccc3c(=O)c4ccccc4c(=O)[nH]c23)o1`, the IC50 in test [1] (read-out: IC50) is 136 nM; in test [2] (setting [4]), 8990 nM.

For `COc1ccc(Cl)cc1/C=C/c1nnc(-c2cccc3c(=O)c4ccccc4c(=O)[nH]c23)o1`, the IC50 in test [1] (read-out: IC50) is 1260 nM; in test [2] (setting [4]) it was more than 100000 nM.

On to `COc1ccc(F)cc1/C=C/c1nnc(-c2cc(C)cc3c(=O)c4ccccc4c(=O)[nH]c23)o1`, for which the IC50 was 1050 nM in test [1] (read-out: IC50) and more than 100000 nM in test [2] (setting [4]).
